Columns and labels:
[1] = system: 19-month-old male Fischer 344 rats; experiment: Morris Water Maze, working memory version, in aged rats on pterostilbene diet; format: in vivo, rat; settings: for distance to find the platform, Trial 1 vs Trial 2: days 3 and 4; for latency to find the platform, Trial 1 vs Trial 2: days 3 and 4, ninth week
From the text: Forty-two 19-month-old male Fischer 344 rats were obtained from the NIA colony (Harlan Sprague Dawley, Indianapolis, Ind.). The rats were individually housed in stainless steel mesh suspended cages, provided food and water ad libitum, and maintained on a 12-hour light/dark cycle. The rats were given one week to adjust to their new environment, after which time they were weight matched and then randomly placed on one of three diets for 12-13 weeks total (n=14/group): control, low dose pterostilbene (0.004%, equivalent to 2.5 mg/kg body weight), or high dose pterostilbene (0.016%, equivalent to 10 mg/kg body weight). All animals were observed daily for clinical signs of disease.
The pterostilbene diets were prepared at Harlan Teklad (Madison, Wis.) by adding crystalline pterostilbene to the control diet, of 40 mg/kg diet, 0.004% w/w for low dose, 160 mg/kg diet, 0.016% w/w for high dose. The amount of corn in the control diet was adjusted to compensate for the added volume of the pterostilbene. The rats were maintained on either the control or pterostilbene diet for eight weeks before motor testing and nine weeks before cognitive testing at 21 months.
The Morris Water Maze (MWM) is a method to test spatial learning and memory of subjects. Developed by Richard Morris, the MWM is an age and diet sensitive learning paradigm that requires a subject to locate a hidden platform (10 cm in diameter) positioned below the surface (2 cm) of a circular pool of water (134 cm in diameter×50 cm in height, maintained at 23° C.) based on distal cues, and to remember its location from the previous trial. Accurate navigation is rewarded with escape from the water onto the platform, for which the subject uses distal cues such as posters, the experimenter, a computer, cage racks, to effectively locate. The working memory version of the MWM (Brandeis et al., 1989. Int J Neurosci. 48:29-69 Morris R., 1984. J Neurosci Methods. 11; 47-60.) was performed daily for four consecutive days during the ninth week of treatment, with a morning and an afternoon session, two trials each session, with a 10 minute inter-trial interval between the two trials. Rats were tested in a random manner, with the restriction that one subject from each group be tested in succession. At the beginning of each trial, the subject was gently immersed in the water at one of four randomized start locations. […] Once the subject reached the platform, it remained there for 15 sec (Trial 1; reference memory or acquisition trial). The subject was returned to its home cage between trials (10 min). Trial 2 (the working memory or retrieval trial) used the same platform location and start position as Trial 1. Performances were videotaped and analyzed with image tracking software (HVS Image, UK), which allows measurements of latency (sec) time to find the platform), path length (cm), and swimming speed (cm/sec; […]). A detailed description of the maze and the paradigm used is disclosed in Shukitt-Hale et al., 1998. Experimental Gerontology, 33:615-624, and incorporated herein by reference.

cyclooxygenase-1 = cyclooxygenase-1 (Homo sapiens, UniProt P23219); settings: Rimando et al., 2002; cited from earlier work
Sequence of cyclooxygenase-1 (P23219 24-599, species assumed): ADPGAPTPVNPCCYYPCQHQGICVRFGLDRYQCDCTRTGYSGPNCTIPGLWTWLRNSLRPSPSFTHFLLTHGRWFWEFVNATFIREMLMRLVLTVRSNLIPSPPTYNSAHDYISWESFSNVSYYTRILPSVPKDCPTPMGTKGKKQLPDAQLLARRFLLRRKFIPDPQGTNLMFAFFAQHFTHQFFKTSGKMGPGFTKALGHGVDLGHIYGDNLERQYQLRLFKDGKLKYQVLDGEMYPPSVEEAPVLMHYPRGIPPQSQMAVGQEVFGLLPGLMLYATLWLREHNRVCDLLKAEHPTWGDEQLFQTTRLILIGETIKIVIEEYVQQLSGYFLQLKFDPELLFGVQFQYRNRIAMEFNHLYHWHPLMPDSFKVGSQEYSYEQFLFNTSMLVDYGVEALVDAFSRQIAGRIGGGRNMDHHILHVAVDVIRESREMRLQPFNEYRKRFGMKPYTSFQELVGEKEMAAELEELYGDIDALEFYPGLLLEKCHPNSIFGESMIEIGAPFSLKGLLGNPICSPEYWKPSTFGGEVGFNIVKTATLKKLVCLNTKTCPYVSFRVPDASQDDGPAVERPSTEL

[2] = system: inducible nitric oxide synthase (iNOS); settings: HT-29 human adenocarcinoma cell lines; Suh et al., 2007; cited from earlier work
[3] = Pterostilbene in subject hippocampal tissue by GC-MS; format: in vivo, rat
Description: Hippocampal brain tissue was extracted from subjects that were euthanized 2-3 weeks following Morris Water Maze testing. The tissue samples were stored at −80° C. and thawed in ice prior to extraction. Tissues were homogenized in 500 μL of phosphate buffer (pH 7.4) then centrifuged (7000 g, 4° C., 15 min). The supernatant was collected and homogenization was repeated. The combined supernatant was extracted with ethyl acetate (500 μL×2). The ethyl acetate extract was dried under a stream of nitrogen.
The dried extract was treated with 30 μL of N,O-bis[trimethylsilyl]trifluoroacetamide:dimethylformamide (BSTFA:DMF, 1:1; Pierce Biotechnology, Inc., Rockford, Ill.) and heated at 70° C. for 40 min. The derivatized sample was used for analysis of pterostilbene by gas chromatography-mass spectrometry (GC-MS). GC-MS was performed on a JEOL GCMate II Instrument (JEOL USA Inc., Peabody, Mass.) using as a J&W DB-5 capillary column (0.25 mm internal diameter, 0.25 μm film thickness, 30 m length; Agilent Technologies, Foster City, Calif.). […] The carrier gas was ultrahigh purity helium, at 1 mL/min flow rate. […] Pterostilbene was determined and quantified from a reconstructed ion chromatogram using m/z 328, 313, 297 and 147. Quantitation was performed from calibration curve of a standard sample of pterostilbene (retention time, 12.5 min). […]

cyclooxygenase-2 = target: T1, cyclooxygenase-2 (Homo sapiens, UniProt P35354); settings: Rimando et al., 2002; cited from earlier work
T1 sequence (P35354 18-604): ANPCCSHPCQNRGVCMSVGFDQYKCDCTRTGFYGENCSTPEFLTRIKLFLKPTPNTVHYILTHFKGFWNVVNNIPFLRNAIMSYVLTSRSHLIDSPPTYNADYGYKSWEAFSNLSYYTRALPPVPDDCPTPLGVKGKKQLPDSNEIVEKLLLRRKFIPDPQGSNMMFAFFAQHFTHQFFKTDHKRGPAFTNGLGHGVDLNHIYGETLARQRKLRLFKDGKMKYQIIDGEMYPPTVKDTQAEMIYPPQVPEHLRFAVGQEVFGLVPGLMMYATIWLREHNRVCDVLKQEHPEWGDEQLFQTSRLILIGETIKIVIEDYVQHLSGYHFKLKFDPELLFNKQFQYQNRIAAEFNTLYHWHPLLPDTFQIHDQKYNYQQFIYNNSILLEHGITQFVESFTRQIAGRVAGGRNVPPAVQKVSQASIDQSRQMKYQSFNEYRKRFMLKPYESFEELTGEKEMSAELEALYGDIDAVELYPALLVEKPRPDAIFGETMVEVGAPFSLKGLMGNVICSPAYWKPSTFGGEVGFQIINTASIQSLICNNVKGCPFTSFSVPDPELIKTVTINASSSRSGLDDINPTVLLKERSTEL

[4] = high dose diet 0.016% (10 mg/kg body weight)

Which “latency or distance to find the platform between the diet groups” value ([1]; Trial 1 or Trial 2, low and high dose vs control diet) does the source give for `COc1cc(/C=C/c2ccc(O)cc2)cc(OC)c1` [pterostilbene, trans-3,5-dimethoxy-4′-hydroxystilbene] here?
Its value is “no differences in latency or distance to find the platform”.

What about the “distance to find the platform, Trial 1 vs Trial 2” value [1, 4] of the same molecule?
Its value is “significant (p<0.05) differences in distance”.

What about the “latency to find the platform, Trial 1 vs Trial 2” value [1, 4] of the same molecule?
The value was “significant (p<0.05) difference in latency”.

And the “distance to find the platform, Trial 1 vs Trial 2” value ([1]; low dose diet 0.004% (2.5 mg/kg body weight))?
The value was “significant (p<0.05) differences in distance”.

And the “latency to find the platform, Trial 1 vs Trial 2” value ([1]; low dose diet 0.004% (2.5 mg/kg body weight), p=0.09)?
Its value is “tended to improve from Trial 1 to Trial 2”.

And the “spatial memory performance compared to control diet fed group” value ([1]; pterostilbene diets (low and high dose))?
Its value is “improved spatial memory performance”.

What about the “inhibition of cyclooxygenase-1” value (cyclooxygenase-1) of the same molecule?
The value was “moderate inhibition”.

And the “expression of iNOS” value [2]?
Its value is “inhibits the expression of inducible nitric oxide synthase (iNOS)”.

What about the hippocampal pterostilbene ([3]; high dose diet 0.016% (10 mg/kg), 12-13 weeks on diet) of the same molecule?
Its hippocampal pterostilbene is 1.352±0.465 ng/tissue sample.

And the hippocampal pterostilbene detectability ([3]; low dose diet 0.004% (2.5 mg/kg))?
The hippocampal pterostilbene detectability was “only detectable in the high dose pterostilbene group”.

And the “inhibition of cyclooxygenase-2” value (cyclooxygenase-2)?
The value was “weak inhibition”.
